Results on 9 molecules are retold here after PMC9891171, “Inhibition studies with simple and complex (in)organic anions of the γ-carbonic anhydrase from Mammaliicoccus (Staphylococcus) sciuri, MscCAγ” (Journal of Enzyme Inhibition and Medicinal Chemistry, 2023).

The target in the experiment is T1, MscCAγ (Mammaliicoccus sciuri, UniProt A0AB37HNM1).
T1 construct: gene OWO77_11715
T1 sequence (A0AB37HNM1 1-169): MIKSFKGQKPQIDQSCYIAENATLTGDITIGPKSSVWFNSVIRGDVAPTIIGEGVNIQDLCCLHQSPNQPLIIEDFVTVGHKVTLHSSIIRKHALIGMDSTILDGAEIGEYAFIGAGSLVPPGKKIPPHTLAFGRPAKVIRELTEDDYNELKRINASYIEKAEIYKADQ
The experiment can be described thus: stopped-flow CO2 hydration assay. The class given is biochemical. The following applies: read-out: KI (mM)^a / McsCAγ.
As for `CCN(CC)C(=S)S` [N,N-diethyldithiocarbamate], the Ki came to 0.5 mM.
With `O=S(=O)(O)NS(=O)(=O)O` [iminodisulfonate], the Ki was 13.7 mM.
As to `[O]=[Re](=[O])(=[O])[OH]` [perrhenate], the Ki was determined as 4.4 mM.
Turning to `OB(O)c1ccccc1` [phenylboronic acid], the Ki came out at 0.9 mM.
With `O=P(O)(O)OP(=O)(O)O` [pyrophosphate] the figure was 0.8 mM; with `N#C[SeH]` [selenocyanide], 32.5 mM; with `NS(N)(=O)=O` [sulfamide], 49.2 mM.
The value for `NS(=O)(=O)O` [sulphamic acid] was 25.2 mM; that for `S=C(S)S` [trithiocarbonate] was 0.07 mM.
